Reference: ChEMBL document CHEMBL4196117, “PK/PD Disconnect Observed with a Reversible Endothelial Lipase Inhibitor” (ACS Med Chem Lett, 2018)
Active and inactive are the calls of the source. The rule behind the calls is not given here.

Assays:
Endothelial lipase [1] = target: T1, Endothelial lipase (Homo sapiens, UniProt Q9Y5X9); assay: Inhibition of endothelial lipase in human HT1080 cells using PED-A1 containing DMPG vesicles as substrate pretreated for 20 mins followed by substrate addition and measured every 20 secs for 10 mins by fluorescence assay; format: cell-based
T1 sequence (Q9Y5X9 whole entry): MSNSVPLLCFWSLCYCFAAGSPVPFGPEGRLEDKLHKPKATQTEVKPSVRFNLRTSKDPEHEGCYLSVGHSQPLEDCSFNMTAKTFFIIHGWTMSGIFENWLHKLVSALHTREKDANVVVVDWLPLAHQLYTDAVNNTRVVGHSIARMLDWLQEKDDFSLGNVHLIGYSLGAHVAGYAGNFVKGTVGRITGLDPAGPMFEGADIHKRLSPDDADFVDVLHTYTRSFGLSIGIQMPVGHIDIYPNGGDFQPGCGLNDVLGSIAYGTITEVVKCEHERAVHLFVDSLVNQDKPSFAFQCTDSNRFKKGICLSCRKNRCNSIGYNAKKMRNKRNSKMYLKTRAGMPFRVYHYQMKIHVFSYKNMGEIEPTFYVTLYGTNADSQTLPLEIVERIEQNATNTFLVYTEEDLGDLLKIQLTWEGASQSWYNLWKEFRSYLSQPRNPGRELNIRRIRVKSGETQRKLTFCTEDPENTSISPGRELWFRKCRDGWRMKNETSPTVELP

[2] = target: T2, Endothelial lipase (Homo sapiens) (UniProt Q9Y5X9); assay: Ratio of IC50 for endothelial lipase in human HT1080 cells using HDL as substrate to IC50 for endothelial lipase in human HT1080 cells using PED-A1 containing DMPG vesicles as substrate; format: cell-based
T2 sequence (whole entry): T1 sequence (Q9Y5X9 whole entry)

Endothelial lipase [3] = target: T1, Endothelial lipase; assay: Inhibition of endothelial lipase in human HT1080 cells using HDL as substrate pretreated for 10 mins followed by substrate addition and measured after 30 mins by LC/MS/MS analysis; format: cell-based
[4] = Total AUC in CD1 mouse at 1 mg/kg, po administered as bolus dose; format: ADME, organism-based; parameters: dose 1 mg/kg, route oral, time AUCmax; conditions: in vivo
[5] = Half life in CD1 mouse at 1 mg/kg, iv administered as bolus dose; format: ADME, organism-based; conditions: in vivo
[6] = target: T3, Hepatic triacylglycerol lipase (Homo sapiens, UniProt P11150); assay: Inhibition of recombinant human HL expressed in African green monkey COS7 cells using HDL as substrate pretreated for 10 mins followed by substrate addition and measured after 30 mins by LC/MS/MS analysis
T3 sequence (P11150 whole entry): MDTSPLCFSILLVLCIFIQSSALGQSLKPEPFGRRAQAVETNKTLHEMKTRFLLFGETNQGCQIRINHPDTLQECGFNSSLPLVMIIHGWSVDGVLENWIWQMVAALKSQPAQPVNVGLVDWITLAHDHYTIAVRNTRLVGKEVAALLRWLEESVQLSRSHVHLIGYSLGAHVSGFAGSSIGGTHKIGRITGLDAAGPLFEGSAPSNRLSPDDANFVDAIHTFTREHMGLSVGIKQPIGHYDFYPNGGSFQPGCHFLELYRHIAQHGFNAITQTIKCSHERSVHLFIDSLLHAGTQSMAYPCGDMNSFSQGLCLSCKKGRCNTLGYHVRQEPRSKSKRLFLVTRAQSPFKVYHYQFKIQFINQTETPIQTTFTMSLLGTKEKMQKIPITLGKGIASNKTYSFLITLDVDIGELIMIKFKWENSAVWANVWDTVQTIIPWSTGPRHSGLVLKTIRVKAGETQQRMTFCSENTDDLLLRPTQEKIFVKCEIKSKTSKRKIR

[7] = Half life in CD1 mouse at 1 mg/kg, po administered as bolus dose; format: ADME, organism-based; conditions: in vivo
Lipoprotein lipase = target: T4, Lipoprotein lipase (Homo sapiens, UniProt P06858); assay: Inhibition of recombinant human LPL expressed in African green monkey COS7 cells using DGGR/DMPG vesicles as substrate pretreated for 10 mins followed by substrate addition and measured for 5 mins
T4 sequence (P06858 whole entry): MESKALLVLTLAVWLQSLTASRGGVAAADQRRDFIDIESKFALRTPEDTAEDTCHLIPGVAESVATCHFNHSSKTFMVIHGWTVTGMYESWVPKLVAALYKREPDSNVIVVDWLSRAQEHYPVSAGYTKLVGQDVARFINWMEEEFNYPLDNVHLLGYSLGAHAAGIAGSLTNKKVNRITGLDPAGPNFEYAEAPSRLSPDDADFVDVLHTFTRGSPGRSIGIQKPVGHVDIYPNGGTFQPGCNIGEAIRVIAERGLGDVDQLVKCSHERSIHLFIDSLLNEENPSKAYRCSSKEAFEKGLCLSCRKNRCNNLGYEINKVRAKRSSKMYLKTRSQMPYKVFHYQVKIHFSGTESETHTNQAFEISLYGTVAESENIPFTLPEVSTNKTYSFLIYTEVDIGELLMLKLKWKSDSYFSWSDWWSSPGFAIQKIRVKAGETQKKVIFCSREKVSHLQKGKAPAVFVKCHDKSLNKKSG

[8] = Dissociation constant, pKa of the compound; format: physicochemical
[9] = Oral bioavailability in CD1 mouse at 1 mg/kg administered as bolus dose; format: ADME, organism-based; conditions: in vivo
[10] = Clearance in CD1 mouse at 1 mg/kg, iv administered as bolus dose; format: ADME, organism-based; conditions: in vivo
[11] = Cmax in CD1 mouse at 1 mg/kg, iv administered as bolus dose; format: ADME, organism-based; parameters: dose 1 mg/kg, route intravenous; conditions: in vivo
[12] = Total AUC in CD1 mouse at 1 mg/kg, iv administered as bolus dose; format: ADME, organism-based; parameters: dose 1 mg/kg, time AUCmax, route intravenous; conditions: in vivo
[13] = Cmax in CD1 mouse at 1 mg/kg, po administered as bolus dose; format: ADME, organism-based; parameters: dose 1 mg/kg, route oral; conditions: in vivo
[14] = target: T2, Endothelial lipase (Homo sapiens); assay: Reversible inhibition of endothelial lipase in human HT1080 cells at 2 uM using PED-A1 containing DMPG vesicles as substrate pretreated for 20 mins followed by compound washout prior to substrate addition and measured every 20 secs for 10 mins by fluorescence assay; format: cell-based
Homo sapiens [15] = species: Homo sapiens; assay: Selectivity ratio of IC50 for recombinant human PL expressed in HEK293F cells to IC50 for endothelial lipase in human HT1080 cells using PED-A1 containing DMPG vesicles as substrate; format: cell-based
[16] = target: T5, Endothelial lipase (Mus musculus) (UniProt Q9WVG5); assay: Competitive inhibition of recombinant mouse endothelial lipase expressed in HEK293F cells using varying levels of HDL as substrate pretreated for 10 mins followed by substrate addition and measured after 30 mins by LC/MS/MS analysis
T5 sequence (whole entry): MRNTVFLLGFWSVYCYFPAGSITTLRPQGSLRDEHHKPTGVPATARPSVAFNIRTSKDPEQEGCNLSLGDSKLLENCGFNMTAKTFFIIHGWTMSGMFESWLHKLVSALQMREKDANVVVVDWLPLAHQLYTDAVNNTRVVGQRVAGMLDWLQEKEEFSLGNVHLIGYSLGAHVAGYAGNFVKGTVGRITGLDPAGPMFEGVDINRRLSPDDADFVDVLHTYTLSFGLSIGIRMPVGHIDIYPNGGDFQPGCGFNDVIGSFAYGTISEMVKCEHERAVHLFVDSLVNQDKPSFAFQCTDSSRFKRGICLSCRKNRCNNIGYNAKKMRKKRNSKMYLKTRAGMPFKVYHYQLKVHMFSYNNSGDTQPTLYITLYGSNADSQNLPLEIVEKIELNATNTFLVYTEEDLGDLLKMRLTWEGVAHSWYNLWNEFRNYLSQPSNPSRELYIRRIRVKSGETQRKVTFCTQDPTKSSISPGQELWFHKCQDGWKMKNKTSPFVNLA

[17] = target: T2, Endothelial lipase (Homo sapiens); assay: Competitive inhibition of endothelial lipase in human HT1080 cells using varying level of HDL as substrate pretreated for 10 mins followed by substrate addition and measured after 30 mins by LC/MS/MS analysis; format: cell-based
Homo sapiens [18] = species: Homo sapiens; assay: Selectivity ratio of IC50 for recombinant human LPL expressed in African green monkey COS7 cells to IC50 for endothelial lipase in human HT1080 cells using PED-A1 containing DMPG vesicles as substrate; format: cell-based
Homo sapiens [19] = species: Homo sapiens; assay: Selectivity ratio of IC50 for recombinant human HL expressed in African green monkey COS7 cells using HDL as substrate to IC50 for endothelial lipase in human HT1080 cells using HDL as substrate; format: cell-based
Mus musculus = assay: Effect on plasma HDL-C level in C57BL/6J mouse at 10 to 50 mg/kg, po qd for 5 days measured at 1 day for 5 days; format: functional, organism-based
Homo sapiens [20] = species: Homo sapiens; assay: Selectivity ratio of IC50 for MAGL (unknown origin) to IC50 for endothelial lipase in human HT1080 cells using PED-A1 containing DMPG vesicles as substrate; format: cell-based

CCN1CC(C(=O)NCCCc2ccc(Cl)c(Cl)c2)=C(NCCCN2CCCCC2)C1=O
IC50 (Endothelial lipase [1]): 25 nM | Ratio IC50 [2]: > 50 | IC50 (Endothelial lipase [3]): 4210 nM

O=C(NCCCc1ccc(Cl)c(Cl)c1)C1=C(O)C(=O)N(CCCN2CCCC2=O)C1
IC50 (Endothelial lipase [1]): 19 nM | Ratio IC50 [2]: 11 to 150 | IC50 (Endothelial lipase [3]): 2440 nM

CCN1CC(C(=O)NC(C)CCc2ccc(Cl)c(Cl)c2)=C(O)C1=O (racemic)
IC50 (Endothelial lipase [1]): 44 nM | IC50 (Endothelial lipase [3]): 264 nM

CN1C(=O)C(O)=C(C(=O)NCCCc2ccc(Cl)c(Cl)c2)C1c1ccccc1Cl (centres undefined)
IC50 (Endothelial lipase [1]): 59 nM | Ratio IC50 [2]: 60 to 100 | IC50 (Endothelial lipase [3]): 5750 nM

CN1CC(C(=O)NCCCc2ccc(Cl)c(Cl)c2)=C(O)C1=O
AUC [4]: 18 µM·h | half-life [5]: 3.4 h | IC50 [6]: 76 nM | half-life [7]: 3.2 h | IC50 (Lipoprotein lipase): > 37000 nM | pKa [8]: 4.8 | bioavailability [9]: 76% | IC50 (Endothelial lipase [1]): 41 nM | clearance [10]: 2.1 mL/min/kg | Ratio IC50 [2]: 11 to 150 | Cmax [11]: 32 µM | AUC [12]: 24 µM·h | IC50 (Endothelial lipase [3]): 1760 nM | Cmax [13]: 8.2 µM

Cn1ccc(C(=O)NCCCc2ccc(Cl)c(Cl)c2)c(O)c1=O
AUC [4]: 16 µM·h | half-life [5]: 4.9 h | IC50 [6]: 16 nM | half-life [7]: 2.9 h | IC50 (Lipoprotein lipase): > 90000 nM | pKa [8]: 6.5 | bioavailability [9]: 82% | inhibition [14]: Active | IC50 (Endothelial lipase [1]): 61 nM | clearance [10]: 2.5 mL/min/kg | Cmax [11]: 25 µM | AUC [12]: 19 µM·h | Cmax [13]: 2 µM

CCN1CC(C(=O)NCCCc2ccc(Cl)c(Cl)c2)=C(NCCOC(C)C)C1=O
IC50 (Endothelial lipase [1]): 19 nM | Ratio IC50 [2]: > 50 | IC50 (Endothelial lipase [3]): 945 nM

O=C(NCCCc1ccc(Cl)c(Cl)c1)C1=C(O)C(=O)N(CCN2CCOCC2)C1
IC50 (Endothelial lipase [1]): 190 nM

CCN1CC(C(=O)NCCCc2ccc(Cl)c(Cl)c2)=C(NCCc2ccncc2)C1=O
IC50 (Endothelial lipase [1]): 59 nM | Ratio IC50 [2]: > 50 | IC50 (Endothelial lipase [3]): 5990 nM

CN1CC(C(=O)NCCCc2ccccc2)=C(O)C1=O
IC50 (Endothelial lipase [1]): 5830 nM

CS(=O)(=O)NC(=O)CCN1CC(C(=O)NCCCc2ccc(Cl)c(Cl)c2)=C(O)C1=O
IC50 (Endothelial lipase [1]): 95 nM | Ratio IC50 [2]: 11 to 150 | IC50 (Endothelial lipase [3]): 1050 nM

O=C(NCCCc1ccc(Cl)c(Cl)c1)C1=C(O)C(=O)N(Cc2ccccc2)C1
Ratio IC50 [2]: 11 to 150

O=C(NCCCc1ccc(Cl)c(Cl)c1)C1=C(O)C(=O)N(CCOc2ccccc2)C1
Ratio IC50 [2]: 11 to 150 | IC50 (Endothelial lipase [3]): 826 nM

CCN1CC(C(=O)NC(C)CCc2ccc(Cl)c(Cl)c2)=C(O)C1=O (stereo in doubt; 7d)
IC50 (Endothelial lipase [1]): 910 nM | IC50 (Endothelial lipase [3]): 835 nM

CCN1CC(C(=O)NCCCc2ccc(Cl)c(Cl)c2)=C(NC)C1=O
IC50 (Endothelial lipase [1]): < 10 nM | Ratio IC50 [2]: > 50 | IC50 (Endothelial lipase [3]): 3020 nM

CCN1CC(C(=O)NCCCc2ccc(Cl)c(Cl)c2)=C(O)C1=O
IC50 (Endothelial lipase [1]): 30 nM | Ratio IC50 [2]: 11 to 150 | IC50 (Endothelial lipase [3]): 3520 nM

CN1C(=O)C(O)=C(C(=O)NCCCc2ccc(Cl)c(Cl)c2)C1CC(C)(C)C (centres undefined)
IC50 (Endothelial lipase [1]): 29 nM | Ratio IC50 [2]: 60 to 100 | IC50 (Endothelial lipase [3]): 1770 nM

CCN1CC(C(=O)NC(C)CCc2ccc(Cl)c(Cl)c2)=C(O)C1=O (stereo in doubt; 7c)
Ratio IC50 (Homo sapiens [15]): > 250 | inhibition [16]: inactive | inhibition [17]: inactive | Ratio IC50 (Homo sapiens [18]): > 250 | Ratio IC50 (Homo sapiens [19]): 12 | Activity (Mus musculus): inactive | Ratio IC50 (Homo sapiens [20]): > 250

CN1CC(C(=O)NCCc2ccc(Cl)c(Cl)c2)=C(O)C1=O
IC50 (Endothelial lipase [1]): 296 nM

CN1C(=O)C(O)=C(C(=O)NCCCc2ccc(Cl)c(Cl)c2)C1C1CC1 (centres undefined)
IC50 (Endothelial lipase [1]): 88 nM | Ratio IC50 [2]: 60 to 100 | IC50 (Endothelial lipase [3]): 5290 nM
